Source: US20070005124A1, “Endoluminal prosthesis comprising a therapeutic agent” (Blue Medical Devices B.V., priority 2003, published 2007)
“Also recorded” adds a separate entry of the source.

Assays:
porcine coronary model [1] = assay: Directly (ethanol dip) coated stents in a porcine coronary model; type: in vivo; conditions: direct coating
Text: To get rid of the polymer, which remains always a concern when coating a drug on an endoluminal prosthesis, since several polymers have shown to be non biocompatible and to induce an inflammatory response leading to SMC proliferation and restenosis, the present inventor tried to coat melatonin directly to the surface of the endoluminal prosthesis. As endoluminal prosthesis use was made of a commercially available 316L stainless steel coronary stent (V-Flex Plus, 16 mm/3.0 mm, William Cook Europe) and the stent was dipped in a 20 mg/ml ethanol solution for 30 seconds. After removal the stent was air-dried using a warm laminar flow to evaporate the ethanol. Using this method a total melatonin load on the stent of 20 μg could be achieved. […] This could be explained by the 1) the potent free radical scavenging effect of melatonin, 2) the potent anti-inflammatory effect of melatonin, 3) maybe a direct effect on SMC proliferation, 4) the non toxic effect of melatonin on other mediators of the healing response.
In a next step the total load of melatonin was increased by using more concentrated melatonin/ethanol solutions. By doing so a maximum total load of 300 μg/ stent could be achieved.

[2] = In-vivo melatonin coronary vascular concentration after direct-coated stent; conditions: direct coating
Text: (§1) A disavantage of the direct coating system is the fast release of the drug from the stent.

[3] = test system: coronary arteries of pigs; assay: Probucol and Melatonin biological-oil coated stents implanted in porcine coronary arteries, histopathology and morphometry at 4 weeks; type: in vivo, Domestic crossbred pigs; conditions: oil-coated loaded stents; for AS: Area stenosis (= 100 * (1 − LA/IEL)) / Inflammation (peri-strut inflammation score 1-3, mean) / Injury (arterial injury score, Schwartz grade 0-3, mean) / NIH: Neointimal hyperplasia (= IEL − LA) / LA: Lumen area: 4 weeks follow-up; for LA: Lumen area: Probucol 447+/−56 μg, Melatonin 367+/−47 μg per stent; for effect on arterial injury and inflammatory response (in words): compared to bare and/or oil-only stents
Description: Domestic crossbred pigs of both sexes weighing 20-25 kg were used. They were fed with a standard natural grain diet without lipid or cholesterol supplementation throughout the study. All animals were treated and cared for in accordance with the Belgium National Institute of Health Guidelines for care and use of laboratory animals.
In this study, bare Jostent Flexmaster stents (n=8), Bare stents dipped in a Biological oil coating (Oil Only; n=7), Bare stents dipped in a Probucol/Biological oil coating solution resulting in a total Probucol load of 447+/−56 μg/per stent (Pro, n=7) and Bare stents dipped in a Melatinin/Biological oil coating solution resulting in a total Melatonin load of 367+/−47 μg/stent (Mela, n=8). Stents were implanted in the coronary arteries of 15 pigs. All pigs were followed for 4 weeks to evaluate the peri-strut inflammatory response and neointimal formation.
Surgical procedure and stent implantation in the coronary arteries were performed according to the method described by De Scheerder et al. in “Local angiopeptin delivery using coated stents reduces neointimal proliferation in overstretched porcine coronary arteries.” J. Inves. Cardiol. 8:215-222; 1996, and in “Experimental study of thrombogenicity and foreign body reaction induced by heparin-coated coronary stents.” Circulation 95:1549-1553; 1997. The guiding catheter was used as a reference to obtain an oversizing from 10 to 20%.
Coronary segments were carefully dissected together with a 1 cm minimum vessel segment both proximal and distal to the stent. The segments were fixed in a 10% formalin solution. The middle part of each stent was harvested for histopathologic analysis. Tissue specimens were embedded in a cold-polymerizing resin (Technovit 7100, Heraus Kulzer GmbH, and Wehrheim, Germany). Sections, 5 microns thick, were cut with a rotary heavy duty microtome HM 360 (Microm, Walldorf, Germany) equipped with a hard metal knife and stained with hematoxylin-eosin, elastic stain and phosphotungstic acid hematoxylin stain. Light microscopic examination was performed by an experienced pathologist who was blinded to the type of stent used. Injury of the arterial wall due to stent deployment (and eventually inflammation induced by the polymer) was evaluated for each stent filament and graded as described by Schwartz et al. • Grade 0=internal elastic membrane intact, media compressed but not lacerated; • Grade 1=internal elastic membrane lacerated; • Grade 2=media visibly lacerated; external elastic membrane compressed but intact; • Grade 3=large laceration of the media extending through the external elastic membrane or stent filament residing in the adventitia.
Inflammatory reaction at each stent filament was carefully examined, searching for inflammatory cells, and scored as followed: • 1=sparsely located histolymphocytes surrounding the stent filament; • 2=more densely located histolymphocytes covering the stent filament, but no lymphogranuloma and/or giant cells formation found; • 3=diffusely located histolymphocytes, lymphogranuloma and/or giant cells, also invading the media. • Mean score=sum of score for each filament/number of filament present.

porcine coronary model [4] = assay: Oil/solvent emulsion coated stents (500 μg) in a porcine coronary model, up to 3 months; type: in vivo; conditions: oil/solvent emulsion coating, 500 μg melatonin per stent
Description: (§2) In order to maintain significant melatonin concentrations for a longer period of time to obtain a durable anti-restenosis effect the present inventor has developed new methods to achieve a slower melatonin release. The drug was dissolved in a biocompatible emulsion of oil and a solvent wherein the drug is highly soluble. The stent was dipped in this emulsion several times and in between the different dipping steps air-dried using a warm laminar flow to evaporate the solvent and harden the drug/oil coating.
Using the same coating method, no effect of probucol was found.

[5] = In-vitro release of drug from coated stent; type: physicochemical
Description: as §1, §2

[6] = test system: in-stent neointimal hyperplasia; assay: Further studies with different total loading doses per stent, in-stent neointimal hyperplasia; type: in vivo

COc1ccc2[nH]cc(CCNC(C)=O)c2c1 [Melatonin, N-acetyl-5-methoxytryptamine]
biocompatibility / inflammation surrounding the struts on histological examination (porcine coronary model [1]; 20 μg per stent, follow-up after 5 days): without inducing any inflammation
effect on inflammatory response and neointimal hyperplasia (porcine coronary model [1]; high dose, maximum total load 300 μg/stent): efficient blocking of inflammatory response and neointimal hyperplasia
decrease in neointimal hyperplasia compared to a bare stent (porcine coronary model [1]; total load 20 μg per stent, after 4 weeks): 26%
duration of sufficient melatonin coronary vascular concentration [2]: up to 15 days
effect on neointimal hyperplasia compared to bare and oil-only stents (in words) ([3]; 4 weeks): significant decrease
lumen area compared with the other groups (in words) ([3]; 4 weeks): larger than the other groups
AS: Area stenosis (= 100 * (1 − LA/IEL)) [3]: 16±7%
Inflammation (peri-strut inflammation score 1-3, mean) [3]: 1.00±0.00
Injury (arterial injury score, Schwartz grade 0-3, mean) [3]: 0.08 ± 0.09
NIH: Neointimal hyperplasia (= IEL − LA) [3]: 0.89±0.28 mm2
LA: Lumen area [3]: 5.10 ± 1.40 mm2
effect on arterial injury and inflammatory response (in words) ([3]; 4 weeks): the injury score was dramatically decreased; also recorded: minimal inflammatory response
effect on peri-strut inflammation and neointimal hyperplasia (porcine coronary model [4]): Sustained inhibition of peri-strut inflammation and neointimal hyperplasia
In-vitro release ([5]; direct coating, within 24 hours): 90%
melatonin release period ([5]; oil/solvent emulsion coating, total load 500 μg per stent): weeks instead of days
effect on neointimal hyperplasia ([6]; dose depending response, already observed for a dose of 0.5 μg/mm^2 stent area): significant inhibition

CC(C)(Sc1cc(C(C)(C)C)c(O)c(C(C)(C)C)c1)Sc1cc(C(C)(C)C)c(O)c(C(C)(C)C)c1 [Probucol]
effect on inflammatory response and neointimal hyperplasia (porcine coronary model [1]; similar experiments as 20 μg melatonin stents): did not result in a significant effect
effect on neointimal hyperplasia compared to bare and oil-only stents (in words) ([3]; 4 weeks): no significant effect
AS: Area stenosis (= 100 * (1 − LA/IEL)) [3]: 24 ± 14%
Inflammation (peri-strut inflammation score 1-3, mean) [3]: 1.03 ± 0.08
Injury (arterial injury score, Schwartz grade 0-3, mean) [3]: 0.28 ± 0.20
NIH: Neointimal hyperplasia (= IEL − LA) [3]: 1.43 ± 0.77 mm2
LA: Lumen area [3]: 4.46 ± 1.06 mm2
Inflammation (peri-strut inflammation score 1-3, mean) ([3]; listed as Probutol): 1.03±0.08
effect on arterial injury and inflammatory response (in words) ([3]; 4 weeks): could decrease arterial injury and inflammatory response
effect on peri-strut inflammation and neointimal hyperplasia (porcine coronary model [4]): no effect
effect on in-stent neointimal hyperplasia ([6]; Probucol total loading doses 10-2000 μg per stent): no significant effect
